# Reference: patent publication US20100292205A1, “Pyrimidone Compounds As GSK-3 Inhibitors” (PFIZER INC., priority 2006, published 2010)
# pIC50: −log10 of the molar value.
# Molecular target: T1, Recombinant human GSK3β (Homo sapiens, UniProt P49841)
# T1 construct: His-tag; made in house; host or cells: Sf9 insect cells / baculovirus
# Assay: GSK-3β (Glycogen Synthase Kinase) cell free enzyme assay
# Assay type: biochemical
# Details: 1 μM; GSK-3β cell free enzyme assay; Examples 42-60; read-out: Percent inhibition at 1 μM
# Procedure: Assay Protocol for GSK-3β (Glycogen Synthase Kinase) in a Cell Free Enzyme Assay
# Recombinant human GSK3β was expressed in SF9/Baculo virus cells. His-tag protein was purified by affinity chromatography to a Ni-NTA Superflow column. Enzyme activity was assayed as the incorporation of [33P] from the gamma phosphate of [33P]ATP (PerkinElmer) into biotinylated peptide substrate bio-LC-S-R-H-S-S-P-H-Q-pS-E-D-E-E-E-OH (Anaspec). Reactions were carried out in a buffer containing 8 mM MOPS (pH 7.0), 10 mM Magnesium Acetate, 0.2 mM EDTA, 1 mM DTT and 2 uM cold ATP. The 33P-ATP was added for 0.025 uCi/well (120 uL) and the final concentration of substrate was 1.0 uM. Enzyme was preincubated with test agent for 30 minutes at room temperature followed by initiation of the reaction by the addition of substrate mix. Incubations were carried out at RT for 60 min. Reactions were stopped by addition of 0.66 volume of buffer containing: 12.5 mM EDTA, 0.25% Triton-X 100, 125 uM ATP, and 6.2 mg/ml streptavidin coated SPA beads (Amersham) in PBS without Ca or Mg. Radioactivity associated with the beads was quantified by scintillation counting of CPM in a Trilux counter (PerkinElmer).
# Examples 42 to 60 were prepared using the analogous procedure described to prepare Example 41, substituting the appropriate starting material (Examples 1 to 35) and coupling with the appropriate acid. The assay protocol used is the percent inhibition at 1 μM for GSK-3β in the cell free enzyme assay described above.
# T1 sequence (P49841 whole entry): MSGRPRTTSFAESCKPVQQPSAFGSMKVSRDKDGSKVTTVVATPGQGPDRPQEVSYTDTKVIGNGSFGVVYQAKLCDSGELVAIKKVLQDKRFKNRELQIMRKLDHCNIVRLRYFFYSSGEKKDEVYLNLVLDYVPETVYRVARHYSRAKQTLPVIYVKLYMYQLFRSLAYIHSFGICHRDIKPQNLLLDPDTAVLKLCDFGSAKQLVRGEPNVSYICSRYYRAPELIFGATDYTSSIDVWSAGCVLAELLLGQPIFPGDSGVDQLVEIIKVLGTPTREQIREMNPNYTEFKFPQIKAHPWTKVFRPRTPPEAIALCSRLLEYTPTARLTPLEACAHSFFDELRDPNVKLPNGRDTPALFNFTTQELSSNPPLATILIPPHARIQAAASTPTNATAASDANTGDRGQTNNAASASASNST
row,inhibition at 1 µM [%],Structure (SMILES)
1,84,"CC(=O)N1CCCC(Nc2nc(-c3ccncc3)cc(=O)n2C)CC1 (stereo not shown) [Example 43, 2-[(1-Acetylazepan-4-yl)amino]-3-methyl-6-pyridin-4-ylpyrimidin-4(3H)-one]"
2,39,"CC(=O)N1CCC(Nc2nc(-c3ccncc3)cc(=O)n2C)C1 (stereo not shown) [Example 45, 2-[(1-Acetylpyrrolidin-3-yl)amino]-3-methyl-6-pyridin-4-ylpyrimidin-4(3H)-one]"
3,51,"CC(=O)N1CCCCC(Nc2nc(-c3ccncc3)cc(=O)n2C)C1 (stereo not shown) [Example 46, 2-[(1-Acetylazepan-3-yl)amino]-3-methyl-6-pyridin-4-ylpyrimidin-4(3H)-one]"
4,44,"CC(=O)N1CCC(Nc2nc(-c3ccncc3)cc(=O)n2C)CC1 [Example 47, 2-[(1-Acetylpiperidin-4-yl)amino]-3-methyl-6-pyridin-4-ylpyrimidin-4(3H)-one]"
5,55,"CC(=O)N1CCCC(Nc2nc(-c3ccncc3)cc(=O)n2C)C1 (stereo not shown) [Example 48, 2-[(1-Acetylpiperidin-3-yl)amino]-3-methyl-6-pyridin-4-ylpyrimidin-4(3H)-one]"
6,75,"CC(=O)N1C[C@@H]2[C@H](C1)[C@H]2Nc1nc(-c2ccncc2)cc(=O)n1C [Example 49, 2-{[(1R,5S,6s)-3-Acetyl-3-azabicyclo[3.1.0]hex-6-yl]amino}-3-methyl-6-pyridin-4-ylpyrimidin-4(3H)-one]"
7,78,"CC(=O)N1C[C@H](F)[C@H](Nc2nc(-c3ccncc3)cc(=O)n2C)C1 [Example 51, 2-{[(3R,4S)-1-Acetyl-4-fluoropyrrolidin-3-yl]amino}-3-methyl-6-pyridin-4-ylpyrimidin-4(3H)-one]"
8,51,"CC(=O)N1CCC(N(C)c2nc(-c3ccncc3)cc(=O)n2C)C1 (stereo not shown) [Example 52, 2-[(1-Acetylpyrrolidin-3-yl)(methyl)amino]-3-methyl-6-pyridin-4-ylpyrimidin-4(3H)-one]"
9,79,"CC(=O)N1CCCC(N(C)c2nc(-c3ccncc3)cc(=O)n2C)CC1 (stereo not shown) [Example 53, 2-[(1-Acetylazepan-4-yl)(methyl)amino]-3-methyl-6-pyridin-4-ylpyrimidin-4(3H)-one]"
10,64,"CCN(c1nc(-c2ccncc2)cc(=O)n1C)C1CCN(C(C)=O)C1 (stereo not shown) [Example 54, 2-[(1-Acetylpyrrolidin-3-yl)(ethyl)amino]-3-methyl-6-pyridin-4-ylpyrimidin-4(3H)-one]"
11,71,"CC(=O)N1CC[C@@]2(C)C[C@H](N(C)c3nc(-c4ccncc4)cc(=O)n3C)CC[C@@H]12 [Example 55, 2-{[(3a,S5,R7,aR)-1-Acetyl-3a-methyloctahydro-1H-indol-5-yl](methyl)amino}-3-methyl-6-pyridin-4-ylpyrimidin-4(3H)-one]"
12,85,"CCN(c1nc(-c2ccncc2)cc(=O)n1C)C1CCCN(C(C)=O)CC1 (stereo not shown) [Example 56, 2-[(1-Acetylazepan-4-yl)(ethyl)amino]-3-methyl-6-pyridin-4-ylpyrimidin-4(3H)-one]"
13,93,"CCN(c1nc(-c2ccncc2)cc(=O)n1C)C1CCN(C(C)=O)CC1 [Example 57, 2-[(1-Acetylpiperidin-4-yl)(ethyl)amino]-3-methyl-6-pyridin-4-ylpyrimidin-4(3H)-one]"
14,64,"CC(=O)N1CCC[C@@H]1CNc1nc(-c2ccncc2)cc(=O)n1C [Example 58, 2-({[(2R)-1-Acetylpyrrolidin-2-yl]methyl}amino)-3-methyl-6-pyridin-4-ylpyrimidin-4(3H)-one]"
15,37,"CC(=O)N1CCC(CNc2nc(-c3ccncc3)cc(=O)n2C)C1 (stereo not shown) [Example 59, 2-{[(1-Acetylpyrrolidin-3-yl)methyl]amino}-3-methyl-6-pyridin-4-ylpyrimidin-4(3H)-one]"
16,77,"CC(=O)N[C@@H]1CC[C@@H](Nc2nc(-c3ccncc3)cc(=O)n2C)C1 [Example 60, N-{(1R,3R)-3-[(1-Methyl-6-oxo-4-pyridin-4-yl-16-dihydropyrimidin-2-yl)amino]cyclopentyl} acetamide]"

row,Structure (SMILES),inhibition at 1 µM [%]
1,"CC(=O)N1[C@@H]2CC[C@H]1CN(c1nc(-c3ccncc3)cc(=O)n1C)C2 [Example 44, 2-[(1R,5S)-3-Acetyl-38-diazabicyclo[3.2.1]oct-8-yl]-3-methyl-6-pyridin-4-ylpyrimidin-4(3H)-one]",72

# Same assay, conditions: cell free enzyme assay; Examples 1-35
row,pIC50,Structure (SMILES)
1,7.60,"Cn1c(NCCn2c(=O)ccc3ccccc32)nc(-c2ccncc2)cc1=O [Example 30, 1-{2-[(1-Methyl-6-oxo-4-pyridin-4-yl-1,6-dihydropyrimidin-2-yl)amino]ethyl} quinolin-2(1H)-one]"
2,7.52,"CN(c1nc(-c2ccncc2)cc(=O)n1C)[C@@H]1CC[C@H]2N(C(=O)OC(C)(C)C)CC[C@@]2(C)C1 [Example 31, tert-butyl (3aS,5R,7aR)-3a-Methyl-5-[methyl(1-methyl-6-oxo-4-pyridin-4-yl-1,6-dihydropyrimidin-2-yl)amino]octahydro-1H-indole-1-carboxylate]"
3,7.15,"Cn1c(NC[C@H]2CCCN2C(=O)OC(C)(C)C)nc(-c2ccncc2)cc1=O [Example 32, tert-butyl (2R)-2-{[(1-Methyl-6-oxo-4-pyridin-4-yl-1,6-dihydropyrimidin-2-yl)amino]methyl} pyrrolidine-1-carboxylate]"
4,7.11,"Cn1c(N[C@@H]2CN(C(=O)OC(C)(C)C)C[C@@H]2F)nc(-c2ccncc2)cc1=O [Example 33, tert-butyl (3S,4R)-3-Fluoro-4-[(1-methyl-6-oxo-4-pyridin-4-yl-1,6-dihydropyrimidin-2-yl)amino]pyrrolidine-1-carboxylate]"
5,6.95,"Cn1c(NCC2CCN(C(=O)OC(C)(C)C)C2)nc(-c2ccncc2)cc1=O (stereo not shown) [Example 34, tert-butyl 3-{[(1-Methyl-6-oxo-4-pyridin-4-yl-1,6-dihydropyrimidin-2-yl)amino]methyl} pyrrolidine-1-carboxylate]"
6,6.77,"Cn1c(NCC2CCCCN2C(=O)OC(C)(C)C)nc(-c2ccncc2)cc1=O (stereo not shown) [Example 35, tert-butyl 2-{[(1-Methyl-6-oxo-4-pyridin-4-yl-1,6-dihydropyrimidin-2-yl)amino]methyl} piperidine-1-carboxylate]"

# Same assay, conditions: cell free enzyme assay; Examples 62-155
row,pIC50,Structure (SMILES)
1,7.11,"Cn1c(NC2CCN(C(=O)c3ccccc3)C2)nc(-c2ccncc2)cc1=O (stereo not shown) [Example 62, 2-[(1-Benzoylpyrrolidin-3-yl)amino]-3-methyl-6-pyridin-4-ylpyrimidin-4(3H)-one]"
2,7.91,"Cn1c(NC2CCCN(C(=O)c3ccccc3)CC2)nc(-c2ccncc2)cc1=O (stereo not shown) [Example 63, 2-[(1-Benzoylazepan-4-yl)amino]-3-methyl-6-pyridin-4-ylpyrimidin-4(3H)-one]"
3,6.44,"Cn1c(NC2CN(C(=O)c3ccccc3)C2)nc(-c2ccncc2)cc1=O [Example 64, 2-[(1-Benzoylazetidin-3-yl)amino]-3-methyl-6-pyridin-4-ylpyrimidin-4(3H)-one]"
4,6.69,"Cn1c(NC2CCN(C(=O)c3ccccc3)CC2)nc(-c2ccncc2)cc1=O [Example 65, 2-[(1-Benzoylpiperidin-4-yl)amino]-3-methyl-6-pyridin-4-ylpyrimidin-4(3H)-one]"
5,6.00,"Cn1c(NC2CCCN(C(=O)c3ccccc3)C2)nc(-c2ccncc2)cc1=O (stereo not shown) [Example 66, 2-[(1-Benzoylpiperidin-3-yl)amino]-3-methyl-6-pyridin-4-ylpyrimidin-4(3H)-one]"
6,8.70,"Cn1c(N[C@H]2[C@@H]3CN(C(=O)c4ccccc4)C[C@@H]32)nc(-c2ccncc2)cc1=O [Example 67, 2-{[(1R,5S,6s)-3-Benzoyl-3-azabicyclo[3.1.0]hex-6-yl]amino}-3-methyl-6-pyridin-4-ylpyrimidin-4(3H)-one]"
7,7.25,"Cn1c(N[C@@H]2CN(C(=O)c3ccccc3)C[C@@H]2F)nc(-c2ccncc2)cc1=O [Example 68, 2-{[(3R,4S)-1-Benzoyl-4-fluoropyrrolidin-3-yl]amino}-3-methyl-6-pyridin-4-ylpyrimidin-4(3H)-one]"
8,7.02,"CCN(c1nc(-c2ccncc2)cc(=O)n1C)C1CCN(C(=O)c2ccccc2)C1 (stereo not shown) [Example 69, 2-[(1-Benzoylpyrrolidin-3-yl)(ethyl)amino]-3-methyl-6-pyridin-4-ylpyrimidin-4(3H)-one]"
9,6.77,"CN(c1nc(-c2ccncc2)cc(=O)n1C)C1CCN(C(=O)c2ccccc2)C1 (stereo not shown) [Example 70, 2-[(1-Benzoylpyrrolidin-3-yl)(methyl)amino]-3-methyl-6-pyridin-4-ylpyrimidin-4(3H)-one]"
10,7.44,"CCN(c1nc(-c2ccncc2)cc(=O)n1C)C1CCCN(C(=O)c2ccccc2)CC1 (stereo not shown) [Example 71, 2-[(1-Benzoylazepan-4-yl)(ethyl)amino]-3-methyl-6-pyridin-4-ylpyrimidin-4(3H)-one]"
11,7.21,"CN(c1nc(-c2ccncc2)cc(=O)n1C)C1CCCN(C(=O)c2ccccc2)CC1 (stereo not shown) [Example 72, 2-[(1-Benzoylazepan-4-yl)(methyl)amino]-3-methyl-6-pyridin-4-ylpyrimidin-4(3H)-one]"
